Experimental data published in patent publication US20170190671A1, “BIS(ARYL)CATECHOL DERIVATIVES AS HERBICIDES” (E I DU PONT DE NEMOURS AND COMPANY, priority 2014, published 2017).

What was measured:
Format in all cases: in vivo
[1] = system: kochia (Kochia scoparia); assay: Test A postemergence; settings: Bassia scoparia, post-emergence, 240 h, 0 to 100 scale, read-out: Plant response rating, Kochia
Summary of the method: (§1)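 Scoring: eye-based comparison with untreated controls, 0 for no effect through 100 for complete control, at about day 10. Treatments: directed soil spray preemergence; foliar spray postemergence on 2–10 cm plants at the one- to two-leaf stage. Medium: loam soil with sand.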

[2] = system: pigweed (Amaranthus retroflexus); assay: Test A postemergence; settings: Amaranthus retroflexus, post-emergence, 240 h, 0 to 100 scale, read-out: Plant response rating, Pigweed
Summary of the method: as §1

[3] = system: Italian ryegrass (Lolium multiflorum); assay: Test A postemergence; settings: Lolium multiflorum, post-emergence, 240 h, 0 to 100 scale, read-out: Plant response rating, Ryegrass, Italian
Summary of the method: as §1

[4] = system: galium (catchweed bedstraw, Galium aparine); assay: Test A postemergence; settings: Galium, post-emergence, 240 h, 0 to 100 scale, read-out: Plant response rating, Galium
Summary of the method: as §1

[5] = system: barnyardgrass (Echinochloa crus-galli); assay: Test A postemergence; settings: Echinochloa crus-galli, post-emergence, 240 h, 0 to 100 scale, read-out: Plant response rating, Barnyardgrass
Summary of the method: as §1

[6] = system: blackgrass (Alopecurus myosuroides); assay: Test A postemergence; settings: Alopecurus myosuroides, post-emergence, 240 h, 0 to 100 scale, read-out: Plant response rating, Blackgrass
Summary of the method: as §1

[7] = system: ragweed (common ragweed, Ambrosia elatior); assay: Test A postemergence; settings: Ambrosia artemisiifolia, post-emergence, 240 h, 0 to 100 scale, read-out: Plant response rating, Ragweed
Summary of the method: as §1

[8] = system: corn (Zea mays); assay: Test A postemergence; settings: Zea mays, post-emergence, 240 h, 0 to 100 scale
Summary of the method: as §1

[9] = system: wheat (Triticum aestivum); assay: Test A postemergence; settings: Triticum aestivum, post-emergence, 240 h, 0 to 100 scale, read-out: Plant response rating, Wheat
Summary of the method: as §1

[10] = system: giant foxtail (Setaria faberii); assay: Test A postemergence; settings: Setaria faberi, post-emergence, 240 h, 0 to 100 scale, read-out: Plant response rating, Foxtail, Giant
Summary of the method: as §1

[11] = system: ducksalad (Heteranthera limosa); assay: Test B flooded paddy; settings: Heteranthera limosa, 336 h; 250 g ai/ha, Flood, 13 to 15 days, scale 0 (no effect) to 100 (complete control); read-out: Plant response rating, Ducksalad
Summary of the method: (§2)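 Under a constant 3 cm flood, test compounds went directly into the paddy water. Following 13 to 15 days of greenhouse growth, treated species and controls were compared by eye.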

[12] = system: barnyardgrass (Echinochloa crus-galli); assay: Test B flooded paddy; settings: Echinochloa crus-galli, 336 h; 250 g ai/ha, Flood, 13 to 15 days, scale 0 (no effect) to 100 (complete control); read-out: Plant response rating, Barnyardgrass
Summary of the method: as §2

[13] = system: rice (Oryza sativa); assay: Test B flooded paddy; settings: Oryza sativa, 336 h; 250 g ai/ha, Flood, 13 to 15 days, scale 0 (no effect) to 100 (complete control); read-out: Plant response rating, Rice
Summary of the method: as §2

[14] = system: sedge, umbrella (small-flower umbrella sedge, Cyperus difformis); assay: Test B flooded paddy; settings: Cyperus difformis, 336 h; 250 g ai/ha, Flood, 13 to 15 days, scale 0 (no effect) to 100 (complete control); read-out: Plant response rating, Sedge, Umbrella
Summary of the method: as §2

[15] = system: kochia (Kochia scoparia); assay: Test A preemergence; settings: Bassia scoparia, pre-emergence, 240 h
Summary of the method: as §1

[16] = system: pigweed (Amaranthus retroflexus); assay: Test A preemergence; settings: Amaranthus retroflexus, pre-emergence, 240 h
Summary of the method: as §1

[17] = system: Italian ryegrass (Lolium multiflorum); assay: Test A preemergence; settings: Lolium multiflorum, pre-emergence, 240 h
Summary of the method: as §1

[18] = system: barnyardgrass (Echinochloa crus-galli); assay: Test A preemergence; settings: Echinochloa crus-galli, pre-emergence, 240 h
Summary of the method: as §1

[19] = system: ragweed (common ragweed, Ambrosia elatior); assay: Test A preemergence; settings: Ambrosia artemisiifolia, pre-emergence, 240 h
Summary of the method: as §1

[20] = system: giant foxtail (Setaria faberii); assay: Test A preemergence; settings: Setaria faberi, pre-emergence, 240 h
Summary of the method: as §1

N#Cc1cccc(Oc2ncc(Br)cn2)c1Oc1ccc(Cl)cn1 [Compound 11]
pest or weed control at 31 g/ha ([1]; 31 g ai/ha): 40%
pest or weed control at 125 g/ha ([1]; 125 g ai/ha): 95%
pest or weed control at 500 g/ha ([1]; 500 g ai/ha): 100%
pest or weed control at 31 g/ha ([2]; 31 g ai/ha): 100%
pest or weed control at 125 g/ha ([2]; 125 g ai/ha): 100%
pest or weed control at 500 g/ha ([2]; 500 g ai/ha): 100%
pest or weed control at 31 g/ha ([3]; 31 g ai/ha): 0%
pest or weed control at 125 g/ha ([3]; 125 g ai/ha): 25%
pest or weed control at 500 g/ha ([3]; 500 g ai/ha): 90%
pest or weed control at 31 g/ha ([4]; 31 g ai/ha): 70%
pest or weed control at 125 g/ha ([4]; 125 g ai/ha): 100%
pest or weed control at 500 g/ha ([4]; 500 g ai/ha): 100%
pest or weed control at 31 g/ha ([5]; 31 g ai/ha): 0%
pest or weed control at 125 g/ha ([5]; 125 g ai/ha): 80%
pest or weed control at 500 g/ha ([5]; 500 g ai/ha): 100%
pest or weed control at 31 g/ha ([6]; 31 g ai/ha): 10%
pest or weed control at 125 g/ha ([6]; 125 g ai/ha): 90%
pest or weed control at 500 g/ha ([6]; 500 g ai/ha): 100%
pest or weed control at 31 g/ha ([7]; 31 g ai/ha): 0%
pest or weed control at 125 g/ha ([7]; 125 g ai/ha): 10%
pest or weed control at 500 g/ha ([7]; 500 g ai/ha): 10%
Corn plant response rating (crop injury, 0 = no effect, 100 = complete kill) at 31 g/ha ([8]; 31 g ai/ha): 10%
Corn plant response rating (crop injury, 0 = no effect, 100 = complete kill) at 125 g/ha ([8]; 125 g ai/ha): 30%
Corn plant response rating (crop injury, 0 = no effect, 100 = complete kill) at 500 g/ha ([8]; 500 g ai/ha): 100%
plant injury at 31 g/ha ([9]; 31 g ai/ha): 20%
plant injury at 125 g/ha ([9]; 125 g ai/ha): 50%
plant injury at 500 g/ha ([9]; 500 g ai/ha): 90%
pest or weed control at 31 g/ha ([10]; 31 g ai/ha): 0%
pest or weed control at 125 g/ha ([10]; 125 g ai/ha): 95%
pest or weed control at 500 g/ha ([10]; 500 g ai/ha): 100%
pest or weed control at 250 g/ha [11]: 100%
pest or weed control at 250 g/ha [12]: 0%
plant injury at 250 g/ha [13]: 0%
pest or weed control at 250 g/ha [14]: 85%
pest or weed control at 31 g/ha ([15]; 31 g ai/ha, 0 to 100 scale (0 no effect, 100 complete control), read-out: Kochia plant response rating): 10%
pest or weed control at 125 g/ha ([15]; 125 g ai/ha, 0 to 100 scale, read-out: Plant response rating, Kochia): 75%
pest or weed control at 500 g/ha ([15]; 500 g ai/ha, 0 to 100 scale, read-out: Plant response rating, Kochia): 100%
pest or weed control at 31 g/ha ([16]; 31 g ai/ha, 0 to 100 scale (0 no effect, 100 complete control), read-out: Pigweed plant response rating): 90%
pest or weed control at 125 g/ha ([16]; 125 g ai/ha, 0 to 100 scale, read-out: Plant response rating, Pigweed): 100%
pest or weed control at 500 g/ha ([16]; 500 g ai/ha, 0 to 100 scale, read-out: Plant response rating, Pigweed): 100%
pest or weed control at 31 g/ha ([17]; 31 g ai/ha, 0 to 100 scale (0 no effect, 100 complete control), read-out: Ryegrass, Italian plant response rating): 0%
pest or weed control at 125 g/ha ([17]; 125 g ai/ha, 0 to 100 scale, read-out: Plant response rating, Ryegrass, Italian): 10%
pest or weed control at 500 g/ha ([17]; 500 g ai/ha, 0 to 100 scale, read-out: Plant response rating, Ryegrass, Italian): 90%
pest or weed control at 31 g/ha ([18]; 31 g ai/ha, 0 to 100 scale (0 no effect, 100 complete control), read-out: Barnyardgrass plant response rating): 0%
pest or weed control at 125 g/ha ([18]; 125 g ai/ha, 0 to 100 scale, read-out: Plant response rating, Barnyardgrass): 80%
pest or weed control at 500 g/ha ([18]; 500 g ai/ha, 0 to 100 scale, read-out: Plant response rating, Barnyardgrass): 100%
pest or weed control at 31 g/ha ([19]; 31 g ai/ha, 0 to 100 scale (0 no effect, 100 complete control), read-out: Ragweed plant response rating): 0%
pest or weed control at 125 g/ha ([19]; 125 g ai/ha, 0 to 100 scale, read-out: Plant response rating, Ragweed): 0%
pest or weed control at 500 g/ha ([19]; 500 g ai/ha, 0 to 100 scale, read-out: Plant response rating, Ragweed): 10%
pest or weed control at 31 g/ha ([20]; 31 g ai/ha, 0 to 100 scale (0 no effect, 100 complete control), read-out: Foxtail, Giant plant response rating): 20%
pest or weed control at 125 g/ha ([20]; 125 g ai/ha, 0 to 100 scale, read-out: Plant response rating, Foxtail, Giant): 100%
pest or weed control at 500 g/ha ([20]; 500 g ai/ha, 0 to 100 scale, read-out: Plant response rating, Foxtail, Giant): 100%
